Where two headings read alike, the source gives them in different places.
Assay: Pharmacokinetic study of 157 (and metabolite endothal) in SD rats, iv and po; plasma, liver, brain
Assay type: in vivo
Conditions: for Tmax: read-out: Tmax; for MRT last: read-out: MRT (0-t); for half-life: read-out: T1/2 (converted); for concentration at 2 h / 157 brain concentration: 2 hr
Protocol: The blood, liver and brain tissue samples were collected at predetermined times from rats. […] Compound were diluted shortly before use in 4% sodium bicarbonate for sterile injection (this is the standard pediatric solution of NaHCO3 with a pH of about 8.5).
Compound 153 was freshly prepared by diluting the drugs shortly before use in 4% sodium bicarbonate for sterile injection (this is the standard pediatric solution of NaHCO3 with a pH of about 8.5). The final concentrations of 153 solutions were 0.25 mg/mL. The 153 solutions were administered via iv or po route at dose volume of 5 ml/kg according to the latest body weight. Compound 157 was freshly prepared by diluting the drugs shortly before use in 4% sodium bicarbonate for sterile injection (this is the standard pediatric solution of NaHCO3 with a pH of about 8.5). The final concentrations of […] solutions were 0.3 mg/mL. The 157 solutions were administered via iv or po route at dose volume of 5 ml/kg according to the latest body weight.
Twelve (12) female SD rats per group were dosed by iv with 153 or 157. The rats were fasted overnight prior to dosing, with free access to water. Foods were withheld for 2 hours post-dose. Blood, liver and brain tissue samples in two animals each group were collected at each time point, within 10% of the scheduled time for each time point. Two extra animals were used for analytic method development.
Blood (>0.3 mL) were collected via aorta abdominalis in anaesthetic animals into tubes containing heparin at 15 min, 1, 2, 6, 10 and 24 hours after iv administration. Liver and brain tissues were collected immediately after animal death. The liver and brain tissues were excised and rinsed with cold saline to avoid blood residual. Upon collection, each sample was placed on ice and the blood samples were subsequently centrifuged (4° C., 11000 rpm, 5 min) to separate plasma. The obtained plasma, liver and brain tissue samples were stored at −70° C. until LC-MS/MS analysis.
Two (2) female SD rats per group were dosed by po with 153 or 157. The rats were fasted overnight prior to dosing, with free access to water. Foods were withheld for 2 hours post-dose. Blood samples (>0.3 mL) were collected via aorta abdominalis in anaesthetic animals into tubes containing heparin at 30 min, 1, 2, 6, 10 and 24 hours after po administration.
To each sample, 30 μL IS-D (for blank samples, 20 μL acetonitrile:water (1:1) was added) and 300 μl acetonitrile was added. The sample mixture was vortexed for approximately 3 min. After centrifugation at 10000 rpm for 5 min at 4° C., 100 μL of the upper layer was transferred to a new tube and added 200 μL 0.4% formic acid in water (pH6.0). The mixture was vortexed for approximately 3 min before injected onto the LC/MS/MS system for analysis.
On the day of the assay, the frozen liver and brain samples were thawed unassisted at room temperature. An about 200 mg weighed sample of each thawed tissue was placed into a plastic tube with water (0.6 mL) to facilitate homogenization. Tissue processing was conducted using a homogenizer for approximately 1 min, 100 μl homogenate was transferred into a fresh Eppendorf tube. To each tube, 50 μL IS-D was added and mixed. Then 500 μl acetonitrile was added and the sample mixture was vortexed for approximately 3 min. After centrifugation at 10000 rpm for 5 min at 4° C., 100 μL of the upper layer was transferred to a new tube and evaporate the supernatant to dryness at 35° C. Reconstitute the residue with 200 μL of 0.4% formic acid in water (pH 6.0), and vortex for 3 min, submit for LC-MS/MS analysis.
Frozen unknown plasma samples were completely thawed at room temperature and vortexed thoroughly. With a pipette, 50 μL of plasma was transferred into a 2.0 mL Eppendorf tube. 50 μL of 0.1N HCl and 800 μL ethyl acetate were added into each sample. The sample mixture was vortexed for approximately 3 min.

[1] = female, Sprague-Dawley (SD), rat, in vivo, iv, 1.5 mg/kg, 157 in Brain, iv 1.5 mg/kg, Mean
[2] = female, Sprague-Dawley (SD), rat, in vivo, iv, 1.5 mg/kg, 157 in Brain, iv 1.5 mg/kg, rat 1
[3] = female, Sprague-Dawley (SD), rat, in vivo, iv, 1.5 mg/kg, 157 in Brain, iv 1.5 mg/kg, rat 2
[4] = female, Sprague-Dawley (SD), rat, in vivo, iv, 1.5 mg/kg, 157 in Liver, iv 1.5 mg/kg, Mean
[5] = female, Sprague-Dawley (SD), rat, in vivo, iv, 1.5 mg/kg, 157 in Liver, iv 1.5 mg/kg, rat 1
[6] = female, Sprague-Dawley (SD), rat, in vivo, iv, 1.5 mg/kg, 157 in Liver, iv 1.5 mg/kg, rat 2
[7] = female, Sprague-Dawley (SD), rat, in vivo, iv, 1.5 mg/kg, iv 1.5 mg/kg, Mean, read-out: 157 plasma concentration
[8] = female, Sprague-Dawley (SD), rat, in vivo, iv, 1.5 mg/kg, iv 1.5 mg/kg, Rat 1, read-out: 157 liver concentration
[9] = female, Sprague-Dawley (SD), rat, in vivo, iv, 1.5 mg/kg, iv 1.5 mg/kg, Rat 1, read-out: 157 plasma concentration
[10] = female, Sprague-Dawley (SD), rat, in vivo, iv, 1.5 mg/kg, iv 1.5 mg/kg, Rat 2, read-out: 157 liver concentration
[11] = female, Sprague-Dawley (SD), rat, in vivo, iv, 1.5 mg/kg, iv 1.5 mg/kg, Rat 2, read-out: 157 plasma concentration
[12] = female, Sprague-Dawley (SD), rat, in vivo, po, 1.5 mg/kg, 157 in plasma, PO 1.5 mg/kg, rat 2
[13] = female, Sprague-Dawley (SD), rat, in vivo, po, 1.5 mg/kg, PO 1.5 mg/kg, Mean, read-out: 157 plasma concentration
[14] = female, Sprague-Dawley (SD), rat, in vivo, po, 1.5 mg/kg, PO 1.5 mg/kg, Rat 1, read-out: 157 plasma concentration
[15] = female, Sprague-Dawley (SD), rat, in vivo, po, 1.5 mg/kg, PO 1.5 mg/kg, Rat 2, read-out: 157 plasma concentration

Structure (SMILES): CCCCCCCOC(=O)C1C2CCC(O2)C1C(=O)N1CCN(C)CC1 (centres unmarked) [Compound 157, 3-(4-Methylpiperazine-1-carbonyl)-7-oxa-bicyclo[2,2,1]heptane-2-carboxylic acid heptyl ester]
- concentration at 1 h (female, SD, rat, in vivo, iv, 1.5 mg/kg, iv 1.5 mg/kg, Rat 2, read-out: 157 liver concentration): 17.6 ng/g
- AUC (female, SD, rat, in vivo, po, 1.5 mg/kg, 157 po 1.5 mg/kg, read-out: AUC of 157 in plasma): 3.2 ng·h/mL
- Cmax (female, SD, rat, in vivo, po, 1.5 mg/kg, 157 po 1.5 mg/kg, read-out: Cmax of 157 in plasma): 6.14 ng/mL
- AUC(0-t) (female, SD, rat, in vivo, 157 iv 1.5 mg/kg, read-out: AUClast of 157 in plasma): 47.2 ng·h/mL
- bioavailability (female, SD, rat, in vivo, 157 po vs iv 1.5 mg/kg, read-out: BA (bioavailability) of 157): 6.98%
- Tmax (female, Sprague-Dawley (SD), in vivo, 157 in plasma, PO 1.5 mg/kg, rat 2): 30 min
- Cmax (female, Sprague-Dawley (SD), rat, in vivo, iv, 1.5 mg/kg, 157 in Brain, iv 1.5 mg/kg, Mean, read-out: Cmax): 60 ng/g
- MRT last [1]: 18.8 min
- half-life [1]: 9.72 min
- Cmax (female, Sprague-Dawley (SD), rat, in vivo, iv, 1.5 mg/kg, 157 in Brain, iv 1.5 mg/kg, rat 1, read-out: Cmax): 60 ng/g
- MRT last [2]: 18.3 min
- half-life [2]: 9.18 min
- Cmax (female, Sprague-Dawley (SD), rat, in vivo, iv, 1.5 mg/kg, 157 in Brain, iv 1.5 mg/kg, rat 2, read-out: Cmax): 60 ng/g
- MRT last [3]: 19.4 min
- half-life [3]: 10.2 min
- Cmax (female, Sprague-Dawley (SD), rat, in vivo, iv, 1.5 mg/kg, 157 in Liver, iv 1.5 mg/kg, Mean, read-out: Cmax): 297 ng/g
- MRT last [4]: 35.3 min
- half-life [4]: 48.8 min
- Cmax (female, Sprague-Dawley (SD), rat, in vivo, iv, 1.5 mg/kg, 157 in Liver, iv 1.5 mg/kg, rat 1, read-out: Cmax): 337 ng/g
- MRT last [5]: 31.9 min
- half-life [5]: 27.3 min
- Cmax (female, Sprague-Dawley (SD), rat, in vivo, iv, 1.5 mg/kg, 157 in Liver, iv 1.5 mg/kg, rat 2, read-out: Cmax): 257 ng/g
- MRT last [6]: 38.8 min
- half-life [6]: 70.2 min
- concentration at 0.25 h [7]: 115 ng/mL
- concentration at 0.25 h [8]: 337 ng/g
- concentration at 0.25 h [9]: 116 ng/mL
- concentration at 0.25 h [10]: 257 ng/g
- concentration at 0.25 h [11]: 114 ng/mL
- concentration at 1 h [7]: 3.12 ng/mL
- concentration at 1 h [9]: 2.67 ng/mL
- concentration at 1 h [11]: 3.57 ng/mL
- concentration at 2 h (female, Sprague-Dawley (SD), rat, in vivo, iv, 1.5 mg/kg, iv 1.5 mg/kg, Mean, read-out: 157 liver concentration): 8.06 ng/g
- concentration at 2 h [7]: 0.524 ng/mL
- concentration at 2 h [8]: 6.4 ng/g
- concentration at 2 h [9]: 0.491 ng/mL
- concentration at 2 h [10]: 9.72 ng/g
- concentration at 2 h [11]: 0.556 ng/mL
- AUC(0-inf) [12]: 3 ng·h/mL
- AUC (female, Sprague-Dawley (SD), rat, in vivo, po, 1.5 mg/kg, 157 in plasma, PO 1.5 mg/kg, rat 2, read-out: AUC): 3 ng·h/mL
- Cmax (female, Sprague-Dawley (SD), rat, in vivo, po, 1.5 mg/kg, 157 in plasma, PO 1.5 mg/kg, rat 2, read-out: Cmax): 6.35 ng/mL
- MRT last [12]: 54.2 min
- half-life [12]: 22.2 min
- concentration at 0.5 h (female, Sprague-Dawley (SD), rat, in vivo, po, 1.5 mg/kg, PO 1.5 mg/kg, Mean): 6.14 ng/mL
- concentration at 0.5 h (female, Sprague-Dawley (SD), rat, in vivo, po, 1.5 mg/kg, PO 1.5 mg/kg, Rat 1): 5.92 ng/mL
- concentration at 0.5 h (female, Sprague-Dawley (SD), rat, in vivo, po, 1.5 mg/kg, PO 1.5 mg/kg, Rat 2): 6.35 ng/mL
- concentration at 1 h [13]: 1.37 ng/mL
- concentration at 1 h [14]: 1.48 ng/mL
- concentration at 1 h [15]: 1.26 ng/mL
- concentration at 2 h [13]: 0.249 ng/mL
- concentration at 2 h [14]: 0.303 ng/mL
- concentration at 2 h [15]: 0.194 ng/mL
- Tmax (female, Sprague-Dawley (SD), rat, in vivo, 157 in Liver, iv 1.5 mg/kg, Mean): 15 min
- 157 brain concentration (iv 1.5 mg/kg, Rat 1): BLQ
- 157 brain concentration (iv 1.5 mg/kg, Rat 2): BLQ
- 157 liver concentration (iv 1.5 mg/kg, 10 hr, Rat 2): BLQ

— patent US20160264593A1 (priority 2013, published 2016)
